{
  "source": "patent US20090110671A1",
  "about": "“AGENT FOR ENHANCHING THE PRODUCTION OF COLLAGEN AND IT'S USE” (priority 2005, published 2009)",
  "system": "NHDF cells",
  "experiment": "Experiment 3: collagen production in NHDF cells, α,α-trehalose and saccharide derivatives with or without AA-2G",
  "type": "cell-based, human",
  "conditions": "relative to AA-2G = 100",
  "procedure": "Based on the confirmation that α,α-trehalose has an action of enhancing the collagen production by L-ascorbic acid, it was experimented as follows to confirm whether saccharide derivatives of α,α-trehalose have such a similar action and effect. Test solutions were prepared by dissolving in D-MEM medium any one of AA-2G, hydrous crystalline α,α-trehalose, a reagent grade specimen with a purity of at least 98%, commercialized by Hayashibara Biochemical Laboratories Inc., Okayama, Japan; “HALLODEX”, a product name of a syrup of saccharide derivatives of α,α-trehalose, having a solid content of about 75% and containing, on a dry solid basis, about 53% of α-maltosyl α,α-trehalose and about 5% of other saccharide derivatives of α,α-trehalose in total, to give final concentrations of 50 μM of AA-2G and 15.0 mg/ml of saccharides. As a control, test solutions were prepared by dissolving in D-MEM medium either of the above hydrous crystalline α,α-trehalose, α-maltosyl α,α-trehalose, or syrup of saccharide derivatives of α,α-trehalose to give a final concentration of 15.0 mg/ml. The medium admixed with the syrup containing saccharide derivatives of α,α-trehalose was adjusted to give a concentration of 15.0 mg/ml of saccharide derivatives of α,α-trehalose. The culture of NHDF cells and the quantification of collagen-production level thereof were carried out similarly as in Experiment 1. The results are in Table 3, where the values are expressed with relative values in terms of the collagen production level of NHDF cells, being regarded as 100, when cultured in D-MEM medium containing AA-2G.",
  "data": [
    {"smiles": "OC[C@H]1O[C@H](O[C@H]2O[C@H](CO)[C@@H](O)[C@H](O)[C@H]2O)[C@H](O)[C@@H](O)[C@@H]1O", "note": "[α,α-trehalose]", "values": [
      {"measurement": "Collagen-production level", "setting": "saccharide 15.0 mg/ml + 50 μM AA-2G", "value": 227},
      {"measurement": "Collagen-production level", "setting": "saccharide 15.0 mg/ml, AA-2G not added", "value": 40}
    ]}
  ]
}
